Test results as given in patent US6972286B2, “Oxazolidinones having a benzannulated 6- or 7-membered heterocycle” (Pharmacia and Upjohn Company, priority 2000, dated 2005).
Values after ≈ are worked out from the molar mass of the structure shown.

Key:
Streptococcus pneumoniae = test: Minimum inhibitory concentration (MIC) by agar dilution; format: cell-based; settings: in vitro, agar dilution (NCCLS 1993), Streptococcus pneumoniae strain SPNE 9912; read-out: Antibacterial Activity Minimum Inhibitory Concentration SPNE 9912
From the text: The oxazolidinone antibacterial agents of this invention have useful activity against a variety of organisms. The in vitro activity of compounds of this invention can be assessed by standard testing procedures such as the determination of minimum inhibitory concentration (MIC) by agar dilution as described in “Approved Standard. Methods for Dilution Antimicrobial Susceptibility Tests for Bacteria That Grow Aerobically”, 3rd. ed., published 1993 by the National Committee for Clinical Laboratory Standards, Villanova, Pa. USA.

Structure (SMILES) | melting point | MIC (Streptococcus pneumoniae)
CC(=O)NC[C@H]1CN(c2ccc3c(c2)CCSC3)C(=O)O1 [Example 10, (−)-N-[[(5S)-3-(3,4-Dihydro-1H-2-benzothiopyran-6-yl)-2-oxo-5-oxazolidinyl]methyl]acetamide] | 112 to 114 °C (dec.) | 1 µg/mL (≈ 3.26 µM)
CC(=S)NC[C@H]1CN(c2ccc3c(c2)CCSC3)C(=O)O1 [Example 11, (+)-N-[[(5S)-3-(3,4-Dihydro-1H-2-benzothiopyran-6-yl)-2-oxo-5-oxazolidinyl]methyl]ethanethioamide] | 112 to 114 °C (dec.) | 0.25 µg/mL (≈ 0.775 µM)
CC(=S)NC[C@H]1CN(c2ccc3c(c2)CCS(=O)(=O)C3)C(=O)O1 [Example 12, (+)-N-[[(5S)-3-(3,4-Dihydro-2,2-dioxido-1H-2-benzothiopyran-6-yl)-2-oxo-5-oxazolidinyl]methyl]ethanethioamide] | 187 °C (dec.) | 1 µg/mL (≈ 2.82 µM)
CC(=S)NC[C@H]1CN(c2ccc3c(c2)COCC3)C(=O)O1 [Example 13, (+)-N-[[(5S)-3-(3,4-Dihydro-1H-2-benzopyran-7-yl)-2-oxo-5-oxazolidinyl]methyl]ethanethioamide] | 165 °C (dec.) | 1 µg/mL (≈ 3.26 µM)
CSc1nnc(N2CCc3ccc(N4C[C@H](CNC(C)=O)OC4=O)cc3CC2)s1 [Example 43, N-({(5S)-3-[3-(5-Methylthio-1,3,4-thiadiazol-2-yl)-1,2,4,5-tetrahydro-1H-3-benzazepin-7-yl]-2-oxo-1,3-oxazolidin-5-yl}methyl)acetamide] | – | 0.5 µg/mL (≈ 1.15 µM)
CC(=O)NC[C@H]1CN(c2ccc3c(c2)CCN(c2nnc(C)s2)CC3)C(=O)O1 [Example 44, N-({(5S)-3-[3-(5-Methyl-1,3,4-thiadiazol-2-yl)-1,2,4,5-tetrahydro-1H-3-benzazepin-7-yl]-2-oxo-1,3-oxazolidin-5-yl}methyl)acetamide] | – | 1 µg/mL (≈ 2.49 µM)
CC(=O)NC[C@H]1CN(c2ccc3c(c2)CCN(c2nnc(NC=O)s2)CC3)C(=O)O1 [Example 45, N-[((5S)-3-{3-[5-(Formylamino)-1,3,4-thiadiazol-2-yl]-1,2,4,5-tetrahydro-1H-3-benzazepin-7-yl}-2-oxo-1,3-oxazolidin-5-yl)methyl]acetamide] | – | 0.5 µg/mL (≈ 1.16 µM)

Continued, values first:

melting point | MIC (Streptococcus pneumoniae) | Structure (SMILES)
– | 0.5 µg/mL (≈ 1.09 µM) | CC(=O)NC[C@H]1CN(c2ccc3c(c2)CCN(c2nnc(NC(=O)CO)s2)CC3)C(=O)O1 [Example 46, N-[5-(7-{(5S)-5-[(Acetylamino)methyl]-2-oxo-1,3-oxazolidin-3-yl}-1,2,4,5-tetrahydro-3H-3-benzazepin-3-yl)-1,3,4-thiadiazol-2-yl]-2-hydroxyacetamide]
– | 2 µg/mL (≈ 6.24 µM) | CC(=O)NC[C@H]1CN(c2ccc3c(c2)CCSCC3)C(=O)O1 [Example 47, N-[[(5S)-2-Oxo-3-(1,2,4,5-tetrahydro-3-benzothiepin-7-yl)-5-oxazolidinyl]methyl]acetamide]
– | 8 µg/mL (≈ 22.7 µM) | CC(=O)NC[C@H]1CN(c2ccc3c(c2)CCS(=O)(=O)CC3)C(=O)O1 [Example 48, N-[[(5S)-2-Oxo-3-(1,2,4,5-tetrahydro-3,3-dioxido-3-benzothiepin-7-yl)-5-oxazolidinyl]methyl]acetamide]
– | 0.5 µg/mL (≈ 1.49 µM) | CC(=S)NC[C@H]1CN(c2ccc3c(c2)CCSCC3)C(=O)O1 [Example 49, N-[[(5S)-2-Oxo-3-(1,2,4,5-tetrahydro-3-benzothiepin-7-yl)-5-oxazolidinyl]methyl]ethanethioamide]
– | 1 µg/mL (≈ 2.71 µM) | CC(=S)NC[C@H]1CN(c2ccc3c(c2)CCS(=O)(=O)CC3)C(=O)O1 [Example 50, N-[[(5S)-2-Oxo-3-(1,2,4,5-tetrahydro-3,3-dioxido-3-benzothiepin-7-yl)-5-oxazolidinyl]methyl]ethanethioamide]
